Literature values, collected in patent publication US20160143861A1, “COMPOSITIONS COMPRISING HYDROXYTYROSOL, RESVERATROL, LYCOPENE, FLAVANOLS, AND/OR FLAVONOIDS AND USE THEREOF” (SPECIALTY NUTRITION GROUP, INC., priority 2013, published 2016).

OCCc1ccc(O)c(O)c1 [Hydroxytyrosol]
time of peak plasma concentration after ingestion: 5 to 10 min
